One assay addresses GLP-1 Receptor (Homo sapiens, UniProt P43220). The assay is described as follows: Functional assay, cAMP induction (luciferase reporter, HEK293) at GLP-1 receptor. The assay is classed as cell-based. To be noted: for EC50: GLP-1 agonism EC50 (nM). (In general: In a reporter assay the amount or activity of a reporter protein is the signal.)
In a further assay the target is Glucagon Receptor (Homo sapiens, UniProt P47871). The assay is described as follows: cAMP inhibition: antagonism of glucagon-induced cAMP at glucagon receptor. In kind it is cell-based. Also noted: expressed in transfected cells; host or cells: HEK293. Particulars: for cAMP pA2: Table 9; for IC50: Glucagon antagonism IC50 (nM, inhibit 0.2-0.8 nM glucagon).
Chain of Glucagon Receptor (P47871 26-477): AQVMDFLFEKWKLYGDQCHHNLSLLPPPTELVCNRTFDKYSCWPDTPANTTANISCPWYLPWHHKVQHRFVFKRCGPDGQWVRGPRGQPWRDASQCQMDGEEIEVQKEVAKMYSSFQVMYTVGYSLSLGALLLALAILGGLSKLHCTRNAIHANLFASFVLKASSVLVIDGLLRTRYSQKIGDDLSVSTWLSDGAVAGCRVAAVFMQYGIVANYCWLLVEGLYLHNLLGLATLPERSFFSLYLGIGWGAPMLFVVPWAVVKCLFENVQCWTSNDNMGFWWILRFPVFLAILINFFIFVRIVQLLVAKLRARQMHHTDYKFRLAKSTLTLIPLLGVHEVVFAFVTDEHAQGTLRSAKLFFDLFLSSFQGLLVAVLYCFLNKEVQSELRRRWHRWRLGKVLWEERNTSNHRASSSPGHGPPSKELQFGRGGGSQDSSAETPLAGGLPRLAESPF
Setting [1] is: Table 16, combined results of three assays.

“And” between values parts separate entries of the source, which are not always exact repeats. Equal values may be shown once. Bridge positions count the residues as written; N and C are the ends. Square brackets hold non-standard residues; d marks the D form. Ends that are not written are not given here. Peptide text beside a SMILES is read from it. * marks the point of attachment. ξ: configuration not given here. X1 = CC(C)CCC[C@@H](C)[C@H]1CC[C@H]2[C@@H]3CC=C4C[C@@H](OC(=O)CCOCCOCCOCCOCCOCCOCCOCCOCCOCCOCCOCCOCCNC(=O)CSCCC(=O)*)CC[C@]4(C)[C@H]3CC[C@]12C; MCA = alpha-methylhydrocinnamic acid (2-methyl-3-phenylpropanoic acid); Abu(4-SO3H) = N[C@@H](CCS(=O)(=O)O)C(=O)O; Palmitoyl = CCCCCCCCCCCCCCCC(=O)*; PhLac = O=C(O)[C@@H](O)Cc1ccccc1; ξPhLac = O=C(O)C(O)Cc1ccccc1; Carboxymethyl = O=C(O)C*

Chain of GLP-1 Receptor (P43220 24-463): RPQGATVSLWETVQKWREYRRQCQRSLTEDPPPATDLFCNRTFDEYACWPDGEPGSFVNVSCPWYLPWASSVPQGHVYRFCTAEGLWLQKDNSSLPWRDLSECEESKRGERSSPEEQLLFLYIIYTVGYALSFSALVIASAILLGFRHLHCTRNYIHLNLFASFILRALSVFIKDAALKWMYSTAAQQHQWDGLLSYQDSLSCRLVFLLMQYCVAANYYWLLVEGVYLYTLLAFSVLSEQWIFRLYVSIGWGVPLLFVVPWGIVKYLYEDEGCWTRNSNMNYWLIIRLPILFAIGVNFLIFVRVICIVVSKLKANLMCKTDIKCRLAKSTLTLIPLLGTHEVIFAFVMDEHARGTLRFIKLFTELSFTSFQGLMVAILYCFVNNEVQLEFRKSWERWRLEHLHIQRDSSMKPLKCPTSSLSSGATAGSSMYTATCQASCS

As for `CC[C@H](C)[C@H](NC(=O)[C@H](Cc1ccccc1)NC(=O)[C@H](CC(=O)O)NC(=O)[C@H](CCCCN)NC(=O)[C@H](C)NC(=O)[C@H](C)NC(=O)[C@H](CCC(N)=O)NC(=O)[C@@H]1CCC(=O)NCCCC[C@H](NC(=O)[C@H](CO)NC(=O)[C@H](Cc2ccc(O)cc2)NC(=O)[C@H](CC(=O)O)NC(=O)[C@H](CO)NC(=O)[C@@H](NC(=O)C(O)Cc2ccccc2)[C@@H](C)O)C(=O)N[C@@H](Cc2ccc(O)cc2)C(=O)N[C@@H](CC(C)C)C(=O)N[C@@H](CC(=O)O)C(=O)N1)C(=O)N[C@@H](C)C(=O)N[C@@H](Cc1c[nH]c2ccccc12)C(=O)N[C@@H](CC(C)C)C(=O)N[C@@H](CCSC)C(=O)N[C@@H](CC(=O)O)C(=O)N[C@H](C(N)=O)[C@@H](C)O` (stereo partly drawn) [[PLA6, K12E16(lactam), GLP(23-32)]G(6-29)] (H-[ξPhLac]TSDYSKYLDEQAAKDFIAWLMDT-NH2; lactam 7-11), the “GLP-1 agonism EC50(nM)” value on GLP-1 Receptor (Table 18) is on record as “No agonism”. As a reminder, the EC50 is the concentration at which the effect is half-maximal. Regarding `CSCC[C@H](NC(=O)[C@H](CC(C)C)NC(=O)[C@H](Cc1c[nH]c2ccccc12)NC(=O)[C@H](CCC(N)=O)NC(=O)[C@@H](NC(=O)[C@H](Cc1ccccc1)NC(=O)[C@H](CC(=O)O)NC(=O)[C@@H]1CCCCNC(=O)CC[C@H](NC(=O)[C@H](CC(=O)O)NC(=O)[C@H](CC(C)C)NC(=O)[C@H](Cc2ccc(O)cc2)NC(=O)[C@H](CCCCN)NC(=O)[C@H](CO)NC(=O)[C@H](CCCCNC(=O)CCSCC(=O)NCCOCCOCCOCCOCCOCCOCCOCCOCCOCCOCCOCCOCCC(=O)O[C@H]2CC[C@@]3(C)C(=CC[C@H]4[C@@H]5CC[C@H]([C@H](C)CCCC(C)C)[C@@]5(C)CC[C@@H]43)C2)NC(=O)[C@H](CC(=O)O)NC(=O)[C@H](CO)NC(=O)[C@@H](NC(=O)[C@@H](O)Cc2ccccc2)[C@@H](C)O)C(=O)N[C@@H](CCCNC(=N)N)C(=O)N[C@@H](CCCNC(=N)N)C(=O)N[C@@H](C)C(=O)N1)C(C)C)C(=O)N[C@@H](CC(=O)O)C(=O)N[C@H](C(N)=O)[C@@H](C)O` [K10-chol G(6-29), [PLA6, K10(COCH2CH2S-Chol), E16K20(lactam), D28]G(6-29) amide] (H-[PhLac]TSDK(X1)SKYLDERRAKDFVQWLMDT-NH2; lactam 11-15), the response at GLP-1 Receptor (Table 23, standard deviation in ( )) was half-maximal at 35.3 nM (EC50). With `CCCCCCCCCCCCCCCC(=O)O[C@@H](Cc1ccccc1)C(=O)N[C@H](C(=O)N[C@@H](CO)C(=O)N[C@@H](CC(=O)O)C(=O)N[C@@H](Cc1ccc(O)cc1)C(=O)N[C@@H](CO)C(=O)N[C@@H](CCCCN)C(=O)N[C@@H](Cc1ccc(O)cc1)C(=O)N[C@@H](CC(C)C)C(=O)N[C@@H](CC(=O)O)C(=O)N[C@H]1CCC(=O)NCCCC[C@@H](C(=O)N[C@@H](CC(=O)O)C(=O)N[C@@H](Cc2ccccc2)C(=O)N[C@H](C(=O)N[C@@H](CCC(N)=O)C(=O)N[C@@H](Cc2c[nH]c3ccccc23)C(=O)N[C@@H](CC(C)C)C(=O)N[C@@H](CCSC)C(=O)N[C@@H](CC(=O)O)C(=O)N[C@H](C(N)=O)[C@@H](C)O)C(C)C)NC(=O)[C@H](C)NC(=O)[C@H](CCCNC(=N)N)NC(=O)[C@H](CCCNC(=N)N)NC1=O)[C@@H](C)O` [[C16FA-O-PLA6, E16K20(lactam),D28]G(6-29)] (Palmitoyl-[PhLac]TSDYSKYLDERRAKDFVQWLMDT-NH2; lactam 11-15), at GLP-1 Receptor (Table 22), the midpoint of the response, the EC50, lay at 45.7 ± 13.8 nM. As to `CSCC[C@H](NC(=O)[C@H](CC(C)C)NC(=O)[C@H](Cc1c[nH]c2ccccc12)NC(=O)[C@H](CCC(N)=O)NC(=O)[C@@H](NC(=O)[C@H](Cc1ccccc1)NC(=O)[C@H](CC(=O)O)NC(=O)[C@H](CCC(N)=O)NC(=O)[C@H](C)NC(=O)[C@H](CCCNC(=N)N)NC(=O)[C@H](CCCNC(=N)N)NC(=O)[C@H](CO)NC(=O)[C@H](CC(=O)O)NC(=O)[C@H](CC(C)C)NC(=O)[C@H](Cc1ccc(O)cc1)NC(=O)[C@H](CCCCN)NC(=O)[C@H](CO)NC(=O)[C@H](Cc1ccc(O)cc1)NC(=O)[C@H](CSCC(=O)O)NC(=O)[C@H](CO)NC(=O)[C@@H](NC(=O)[C@@H](N)Cc1ccccc1)[C@@H](C)O)C(C)C)C(=O)N[C@@H](CC(N)=O)C(=O)N[C@H](C(N)=O)[C@@H](C)O` [[(CSA-1)^9]Glucagon(aa6-29)-NH2, [C^9(SCH2COOH)]Glucagon(aa6-29)-NH2] (H-FTSC(Carboxymethyl)YSKYLDSRRAQDFVQWLMNT-NH2; N-terminus assumed), the “cAMP pA2” value on Glucagon Receptor was found to be 6.68 ± 1.05. By IC50 is commonly meant the midpoint of a concentration-inhibition curve. In the case of `CSCC[C@H](NC(=O)[C@H](CC(C)C)NC(=O)[C@H](Cc1c[nH]c2ccccc12)NC(=O)[C@H](CCC(N)=O)NC(=O)[C@@H](NC(=O)[C@H](Cc1ccccc1)NC(=O)[C@H](CC(=O)O)NC(=O)[C@@H]1CCCCNC(=O)CC[C@H](NC(=O)[C@H](CC(=O)O)NC(=O)[C@H](CC(C)C)NC(=O)[C@H](Cc2ccc(O)cc2)NC(=O)[C@H](CCCCN)NC(=O)[C@H](CO)NC(=O)[C@H](Cc2ccc(O)cc2)NC(=O)[C@H](CCC(=O)O)NC(=O)[C@H](CO)NC(=O)[C@@H](NC(=O)[C@@H](O)Cc2ccccc2)[C@@H](C)O)C(=O)N[C@@H](CCCNC(=N)N)C(=O)N[C@@H](CCCNC(=N)N)C(=O)N[C@@H](C)C(=O)N1)C(C)C)C(=O)N[C@@H](CC(N)=O)C(=O)N[C@H](C(=O)NCC(=O)N1CCC[C@H]1C(=O)N[C@@H](CO)C(=O)N[C@@H](CO)C(=O)NCC(=O)N[C@@H](C)C(=O)N1CCC[C@H]1C(=O)N1CCC[C@H]1C(=O)N1CCC[C@H]1C(=O)N[C@@H](CO)C(N)=O)[C@@H](C)O` [[PLA6, E9, E16K20(Lactam)]], the IC50 on Glucagon Receptor (setting [1]) worked out at 20.5 ± 2.5 nM. Regarding `CC[C@H](C)[C@H](NC(=O)[C@H](Cc1ccccc1)NC(=O)[C@H](CCC(=O)O)NC(=O)[C@@H]1CCCCNC(=O)CC[C@H](NC(=O)[C@H](CC(=O)O)NC(=O)[C@H](CC(C)C)NC(=O)[C@H](Cc2ccc(O)cc2)NC(=O)[C@H](CCCCN)NC(=O)[C@H](CO)NC(=O)[C@H](Cc2ccc(O)cc2)NC(=O)[C@H](CC(=O)O)NC(=O)[C@H](CO)NC(=O)[C@@H](NC(=O)C(O)Cc2ccccc2)[C@@H](C)O)C(=O)N[C@@H](CCC(N)=O)C(=O)N[C@@H](C)C(=O)N[C@@H](C)C(=O)N1)C(=O)N[C@@H](C)C(=O)N[C@@H](Cc1c[nH]c2ccccc12)C(=O)N[C@@H](CC(C)C)C(=O)N[C@@H](CCSC)C(=O)N[C@@H](CC(=O)O)C(=O)N[C@H](C(N)=O)[C@@H](C)O` (stereo partly drawn) [[PLA6, E16K20(lactam), GLP(23-32)]G(6-29)] (H-[ξPhLac]TSDYSKYLDEQAAKEFIAWLMDT-NH2; lactam 11-15), the IC50 on Glucagon Receptor (Table 18) was 11.7 nM and 73.5 nM. At GLP-1 Receptor (Table 24), `CSCC[C@H](NC(=O)[C@H](CC(C)C)NC(=O)[C@H](Cc1c[nH]c2ccccc12)NC(=O)[C@H](CCC(N)=O)NC(=O)[C@@H](NC(=O)[C@H](Cc1ccccc1)NC(=O)[C@H](CC(=O)O)NC(=O)[C@@H]1CCCCNC(=O)CC[C@H](NC(=O)[C@H](CC(=O)O)NC(=O)[C@H](CC(C)C)NC(=O)[C@H](Cc2ccc(O)cc2)NC(=O)[C@H](CCCCN)NC(=O)[C@H](CO)NC(=O)[C@H](Cc2ccc(O)cc2)NC(=O)[C@H](CC(=O)O)NC(=O)[C@H](CO)NC(=O)[C@@H](NC(=O)[C@H](Cc2ccccc2)OC(=O)[C@@H](NC(=O)CNC(=O)[C@H](CCC(=O)O)NC(=O)[C@H](C)N)[C@@H](C)O)[C@@H](C)O)C(=O)N[C@@H](CCCNC(=N)N)C(=O)N[C@@H](CCCNC(=N)N)C(=O)N[C@@H](C)C(=O)N1)C(C)C)C(=O)N[C@@H](CC(=O)O)C(=O)N[C@H](C(N)=O)[C@@H](C)O` [[A2E3-O-PLA6, D9, E16K20(Lactam), D28] G(2-29)] (H-AEGT[PhLac]TSDYSKYLDERRAKDFVQWLMDT-NH2; lactam 15-19; N-terminus assumed) showed an EC50 of 18 ± 2.14 nM. Turning to “FTSEYSKYLDERRAQDFVQWLMNTGPSSGAPPPS-NH2 [E9, K12, E16]”, at Glucagon Receptor (setting [1]), the 50% inhibitory concentration (IC50) was 762 ± 127 nM. Consider `CC(C)C[C@H](NC(=O)[C@H](Cc1ccc(O)cc1)NC(=O)[C@H](CCCCN)NC(=O)[C@H](CO)NC(=O)[C@H](Cc1ccc(O)cc1)NC(=O)[C@H](CCS(=O)(=O)O)NC(=O)[C@H](CO)NC(=O)[C@@H](NC(=O)[C@H](Cc1ccccc1)NC(=O)[C@@H](NC(=O)[C@H](CC(C)C)NC(=O)[C@H](CCC(N)=O)NC(=O)[C@@H](N)CO)[C@@H](C)O)[C@@H](C)O)C(=O)N[C@@H](CC(=O)O)C(=O)N[C@@H](CO)C(=O)N[C@@H](CCCNC(=N)N)C(=O)N[C@@H](CCCNC(=N)N)C(=O)N[C@@H](C)C(=O)N[C@@H](CCC(N)=O)C(=O)N[C@@H](CC(=O)O)C(=O)N[C@@H](Cc1ccccc1)C(=O)N[C@H](C(=O)N[C@@H](CCC(N)=O)C(=O)N[C@@H](Cc1ccccc1)C(=O)N[C@@H](CC(C)C)C(=O)N[C@@H](CC(C)C)C(=O)N[C@@H](CC(N)=O)C(=O)N[C@H](C(N)=O)[C@@H](C)O)C(C)C` [[desHis^1, Leu^4, hCys^9(SO3−), Phe^25, Leu^27] Glucagon-NH2] (H-SQLTFTS[Abu(4-SO3H)]YSKYLDSRRAQDFVQFLLNT-NH2; N-terminus assumed), for which, at Glucagon Receptor, the “glucagon antagonism, in words” value is “some level of antagonism”. For `CSCC[C@H](NC(=O)[C@H](CC(C)C)NC(=O)[C@H](Cc1c[nH]c2ccccc12)NC(=O)[C@H](CCC(N)=O)NC(=O)[C@@H](NC(=O)[C@H](Cc1ccccc1)NC(=O)[C@H](CC(=O)O)NC(=O)[C@H](CCC(N)=O)NC(=O)[C@H](C)NC(=O)[C@H](CCCNC(=N)N)NC(=O)[C@H](CCCNC(=N)N)NC(=O)[C@H](CO)NC(=O)[C@H](CC(=O)O)NC(=O)[C@H](CC(C)C)NC(=O)[C@H](Cc1ccc(O)cc1)NC(=O)[C@H](CCCCN)NC(=O)[C@H](CO)NC(=O)[C@H](Cc1ccc(O)cc1)NC(=O)[C@H](CCS(=O)(=O)O)NC(=O)[C@H](CO)NC(=O)[C@@H](NC(=O)[C@@H](N)Cc1ccccc1)[C@@H](C)O)C(C)C)C(=O)N[C@@H](CC(N)=O)C(=O)N[C@H](C(N)=O)[C@@H](C)O` [[hCys^9(SO3H)]Glucagon(aa6-29)-NH2] (H-FTS[Abu(4-SO3H)]YSKYLDSRRAQDFVQWLMNT-NH2; N-terminus assumed), the “cAMP pA2” value at Glucagon Receptor is listed as 7.16 ± 0.51. Take “[PLA6, K12E16(Lactam), D28,CEX-C40(20 kDa)]G(6-40) ([PhLac]TSDYSKYLDERRAQDFVQWLMDTGPSSGAPPPSC(PEG 20 kDa); lactam 7-11)”: the “Glucagon antagonism IC50(nM) (inhibit 0.2-0.8 nM glucagon)” value in the assay with Glucagon Receptor is reported as “Not antagonist (n = 1)”. As to “[MCA^6, E^9, C^24(20kDaPEG)]Glucagon(aa6-29)-NH2 ([MCA]TSEYSKYLDSRRAQDFVC(PEG 20 kDa)WLMNT-NH2)”, the “IC50 (nM) (cAMP, inhibit 0.2 mM Glucagon)” value with Glucagon Receptor (Table 12) is “no antagonism”.
